This test addresses T1, human sodium glucose cotransporter 2 (Homo sapiens, UniProt P31639).
T1 construct: expressed in transfected cells; host or cells: CHO-K1 (ATCC No. CCL 61) or HEK293 (ATCC No. CRL-1573), stably transfected with pZeoSV-hSGLT2
T1 sequence (P31639 1-672): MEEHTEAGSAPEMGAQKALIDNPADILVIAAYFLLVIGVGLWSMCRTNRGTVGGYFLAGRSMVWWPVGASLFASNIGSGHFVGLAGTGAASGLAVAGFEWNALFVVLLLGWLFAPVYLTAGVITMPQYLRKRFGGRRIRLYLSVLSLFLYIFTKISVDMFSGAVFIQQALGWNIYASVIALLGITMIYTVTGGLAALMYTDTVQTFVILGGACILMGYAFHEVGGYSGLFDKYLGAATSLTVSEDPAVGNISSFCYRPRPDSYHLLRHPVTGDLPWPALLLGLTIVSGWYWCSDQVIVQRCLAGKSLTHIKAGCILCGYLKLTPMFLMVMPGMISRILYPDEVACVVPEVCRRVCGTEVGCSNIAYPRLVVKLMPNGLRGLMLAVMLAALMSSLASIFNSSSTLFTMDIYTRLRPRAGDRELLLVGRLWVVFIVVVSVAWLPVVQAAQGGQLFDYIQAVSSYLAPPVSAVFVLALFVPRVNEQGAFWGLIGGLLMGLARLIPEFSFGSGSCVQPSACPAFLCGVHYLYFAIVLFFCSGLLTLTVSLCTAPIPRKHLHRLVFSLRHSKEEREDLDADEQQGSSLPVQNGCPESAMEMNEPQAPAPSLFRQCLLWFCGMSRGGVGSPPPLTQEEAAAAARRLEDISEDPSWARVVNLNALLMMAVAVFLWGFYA
Description: SGLT-2 assay (14C-AMG uptake in CHO-hSGLT2 or HEK-hSGLT2 cells). The format is cell-based. As to conditions: inhibition of 14C-AMG uptake; CHO-K1 or HEK293 cells stably transfected with hSGLT2; 2 hours' incubation at 37° C. As to the method: These cell lines transport ^14C-labelled alpha-methyl-glucopyranoside (14C-AMG, Amersham) into the interior of the cell in sodium-dependent manner.
The SGLT-2 assay is carried out as follows:
CHO-hSGLT2 cells are cultivated in Ham's F12 Medium (BioWhittaker) with 10% foetal calf serum and 250 μg/ml zeocin (Invitrogen), and HEK293-hSGLT2 cells are cultivated in DMEM medium with 10% foetal calf serum and 250 μg/ml zeocin (Invitrogen).
The cells are detached from the culture flasks by washing twice with PBS and subsequently treating with trypsin/EDTA. After the addition of cell culture medium the cells are centrifuged, resuspended in culture medium and counted in a Casy cell counter. Then 40,000 cells per well are seeded into a white, 96-well plate coated with poly-D-lysine and incubated overnight at 37° C., 5% CO2. The cells are washed twice with 250 μl of assay buffer (Hanks Balanced Salt Solution, 137 mM NaCl, 5.4 mM KCl, 2.8 mM CaCl2, 1.2 mM MgSO4 and 10 mM HEPES (pH7.4), 50 μg/ml of gentamycin). Two hundred-fifty microliters of assay buffer and 5 μl of test compound are then added to each well and the plate is incubated for a further 15 minutes in the incubator. Five microliters of 10% DMSO are used as the negative control. […] After this incubation the radioactivity of the ^14C-AMG absorbed is measured in a Topcount (Packard) using a ^14C scintillation program.

As usually defined, the EC50 is the concentration giving half of the maximal effect. A higher EC50 goes with a less potent agent. In the case of `CCc1ccc(Cc2c(O[C@@H]3O[C@H](CO)[C@@H](O)[C@H](O)[C@H]3O)nn(C3CCOCC3)c2C)cc1` [compound (4) of Example 3, 1-(tetrahydropyran-4-yl)-3-(β-D-glucopyranosyloxy)-4-(4-ethylbenzyl)-5-methyl-1H-pyrazole], the EC50 was about 5 nM.
